# Test results from ChEMBL document CHEMBL6103589, “Synthesis and evaluation of novel ebselen derivatives as urease inhibitors for combating Helicobacter pylori infections” (Eur J Med Chem, 2025).
# pIC50: −log10 of the molar value. The source made the active and inactive calls. The rule behind the calls is not given here.
# System: Helicobacter pylori
# Assay: Antibacterial activity against Helicobacter pylori ATCC 43504 assessed as inhibition of bacterial colonies at 32 ug/mL incubated for 24 hrs by broth dilution method
# Type: functional, organism-based
# Settings: dose 32.0 µg/ml
row,Compound,Activity
1,O=c1c2ccccc2[se]n1-c1ccccc1 [EBSELEN],Active

# System: Helicobacter pylori
# Assay: Antibacterial activity against Helicobacter pylori ATCC 43504 incubated for 24 hrs by broth dilution method
# Type: functional
# Settings: dose 1-64 µM/ml
Compound,Activity,MIC
O=c1c2ccccc2[se]n1-c1ccccc1 [EBSELEN],Dose-dependent-effect,32 µg/mL

# Target: Urease subunit alpha/Urease subunit beta (Helicobacter pylori (strain ATCC 700392 / 26695) (Campylobacterpylori), UniProt P69996)
# Assay: Inhibition of Helicobacter pylori ATCC 43504 urease preincubated for 75 mins followed by urea addition and measured after 30 mins by ELISA
# Type: protein-complex assay
# Settings: not given
# Chain of Urease subunit alpha/Urease subunit beta (P69996 whole entry): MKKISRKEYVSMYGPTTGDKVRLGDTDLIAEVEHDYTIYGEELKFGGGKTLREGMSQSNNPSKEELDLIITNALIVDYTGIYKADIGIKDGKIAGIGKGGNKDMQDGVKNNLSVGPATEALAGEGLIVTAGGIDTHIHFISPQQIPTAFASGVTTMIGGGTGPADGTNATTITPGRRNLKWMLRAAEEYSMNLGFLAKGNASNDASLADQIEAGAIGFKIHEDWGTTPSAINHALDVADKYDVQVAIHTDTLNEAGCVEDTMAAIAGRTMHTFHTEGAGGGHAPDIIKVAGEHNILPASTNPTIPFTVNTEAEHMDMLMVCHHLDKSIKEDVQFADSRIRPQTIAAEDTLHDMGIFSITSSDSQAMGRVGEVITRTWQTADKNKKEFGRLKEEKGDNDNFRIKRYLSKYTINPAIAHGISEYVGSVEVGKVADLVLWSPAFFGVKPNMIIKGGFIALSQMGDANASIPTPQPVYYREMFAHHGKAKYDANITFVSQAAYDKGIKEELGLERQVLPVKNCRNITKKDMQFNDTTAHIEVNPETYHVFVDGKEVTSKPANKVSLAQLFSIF
# Chain of Urease subunit alpha/Urease subunit beta (P14916 whole entry, further chain): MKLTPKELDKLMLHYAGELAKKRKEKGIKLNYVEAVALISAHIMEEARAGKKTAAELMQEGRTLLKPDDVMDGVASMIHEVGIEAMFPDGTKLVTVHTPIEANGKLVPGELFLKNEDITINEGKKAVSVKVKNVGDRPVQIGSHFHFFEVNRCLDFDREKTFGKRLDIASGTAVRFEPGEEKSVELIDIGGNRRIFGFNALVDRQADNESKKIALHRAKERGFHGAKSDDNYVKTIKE
row,Compound,pIC50
1,Cc1ccc(-n2[se]c3ccccc3c2=O)cc1C(F)(F)F,4.92
2,O=c1c2ccccc2[se]n1-c1cc(F)ccc1Cl,5.87
3,COc1cccc(C(=O)n2[se]c3ccccc3c2=O)c1,5.70
4,O=C(Oc1n[se]c2ccccc12)c1ccc(F)cc1,6.47
5,COc1cccc(-n2[se]c3ccccc3c2=O)c1,5.18
6,O=C(c1cccc(F)c1F)n1[se]c2ccccc2c1=O,5.72
7,COC(=O)c1cccc(-n2[se]c3ccccc3c2=O)c1,5.33
8,O=c1c2ccccc2[se]n1-c1ccc(Cl)cc1,5.60
9,O=C(c1ccc(Br)cc1)n1[se]c2ccccc2c1=O,6.03
10,Cc1ccccc1C(=O)n1[se]c2ccccc2c1=O,5.50
11,O=C(c1cc(F)ccc1F)n1[se]c2ccccc2c1=O,5.53
12,Cc1cccc(-n2[se]c3ccccc3c2=O)c1,5.50
13,O=C(c1cccc([N+](=O)[O-])c1)n1[se]c2ccccc2c1=O,5.91
14,O=C(Oc1n[se]c2ccccc12)c1ccc(F)cc1F,6.44
15,O=c1c2ccccc2[se]n1-c1ccccc1 [EBSELEN],5.82
16,O=c1c2ccccc2[se]n1-c1cccc(Cl)c1,5.56
17,O=C(c1ccccc1C(F)(F)F)n1[se]c2ccccc2c1=O,5.40
18,O=C(c1cc(F)c(F)cc1F)n1[se]c2ccccc2c1=O,5.48
19,O=C(c1cccc(Cl)c1)n1[se]c2ccccc2c1=O,5.88
20,Cc1ccc(C(=O)n2[se]c3ccccc3c2=O)cc1,5.43
21,O=c1c2ccccc2[se]n1-c1cccc(OC(F)(F)F)c1,5.14
22,O=C(Oc1n[se]c2ccccc12)c1c(F)cccc1F,5.95
23,COC(=O)c1ccc(-n2[se]c3ccccc3c2=O)cc1,5.28
24,COc1ccccc1C(=O)n1[se]c2ccccc2c1=O,5.96
25,O=C(c1ccc(F)cc1F)n1[se]c2ccccc2c1=O,5.70
26,N#Cc1cccc(-n2[se]c3ccccc3c2=O)c1,5.88
27,O=C(Oc1n[se]c2ccccc12)c1cccc(F)c1F,6.36
28,O=C(c1ccc(F)c(F)c1)n1[se]c2ccccc2c1=O,5.47

row,Compound,pIC50
1,O=c1c2ccccc2[se]n1-c1ccc(OC(F)(F)F)cc1,4.97
2,COc1ccc(-n2[se]c3ccccc3c2=O)cc1,5.12
3,O=C(c1cccc(Br)c1)n1[se]c2ccccc2c1=O,6.09
4,O=c1c2ccccc2[se]n1-c1ccc(F)c(F)c1,5.45
5,Cc1cccc(C(=O)n2[se]c3ccccc3c2=O)c1,5.27
6,O=c1c2ccccc2[se]n1-c1ccc(C(F)(F)F)cc1F,5.28
7,O=C(c1ccc(C(F)(F)F)cc1)n1[se]c2ccccc2c1=O,5.45
8,O=C(c1ccccc1F)n1[se]c2ccccc2c1=O,6.06
9,O=c1c2ccccc2[se]n1-c1ccc(F)cc1,5.62
10,O=c1c2ccccc2[se]n1-c1ccc(F)cc1Cl,5.81
11,O=C(c1cccc(F)c1)n1[se]c2ccccc2c1=O,6.36
12,O=C(c1ccc([N+](=O)[O-])cc1)n1[se]c2ccccc2c1=O,5.71
13,COc1ccc(C(=O)n2[se]c3ccccc3c2=O)cc1,5.76
14,O=C(Oc1n[se]c2ccccc12)c1cc(F)ccc1F,6.07
15,O=C(c1ccccc1[N+](=O)[O-])n1[se]c2ccccc2c1=O,5.58
16,O=C(c1ccccc1Cl)n1[se]c2ccccc2c1=O,5.84
17,O=C(Oc1n[se]c2ccccc12)c1ccccc1F,6.51
18,O=c1c2ccccc2[se]n1-c1ccccc1Cl,5.74
19,O=C(c1ccc(Cl)cc1)n1[se]c2ccccc2c1=O,5.71
20,O=c1c2ccccc2[se]n1-c1c(F)cccc1Cl,5.82
21,O=C(c1c(F)cccc1F)n1[se]c2ccccc2c1=O,5.44
22,O=C(c1cccc(C(F)(F)F)c1)n1[se]c2ccccc2c1=O,5.84
23,CC(C)(C)c1ccc(-n2[se]c3ccccc3c2=O)cc1,4.82
24,O=C(c1ccc(F)c(F)c1F)n1[se]c2ccccc2c1=O,5.46
25,O=C(c1ccc(F)cc1)n1[se]c2ccccc2c1=O,6.05
26,O=C(c1ccccc1Br)n1[se]c2ccccc2c1=O,5.82
27,O=C(Oc1n[se]c2ccccc12)c1ccc(F)c(F)c1F,5.96
